Assay results published in patent US6569903B2, “Ophthalmic compositions” (Rohto Pharmaceutical Co., Ltd., priority 1999, dated 2003).
Counter-ions that a name gives are not always drawn.

Tests used:
β2 adrenergic receptor = target: T1, β2 adrenergic receptor (Cavia porcellus, UniProt Q8K4Z4); details: cited from earlier work
T1 construct: a relaxation of smooth muscle (EC50) in an excised trachea or uterus; from tissue; host or cells: excised trachea (tracheal smooth muscle)

[1] = test system: Japanese albino strain male rabbits; assay: Protein concentration in tears after systemic (ear vein) administration (Test Example 3); type: in vivo, rabbit; details: for Rate of increase in protein concentration in tears (%): 50 μg/rabbit into the ear vein
Method: (§1) Using Japanese albino strain male rabbits, injections containing selective adrenergic β2 receptor agonists were examined for their actions to promote the tear secretion and the protein secretion in tears.
(§2) Prior to use, clenbuterol hydrochloride was dissolved in a physiological saline (concentration 50 μg/ml), and adjusted to the pH in the range 6.0 to 7.5. The physiological saline was used as control.
(§3) Six rabbits (11 to 12 weeks old, weighing 2.4 to 2.6 kg) were used in each group. The test solution (50 μg/rabbit) was administered into the ear vein, and amounts of tears secreted were measured 15 to 10 min prior to the administration of the test solution, 5 to 10 min, 20 to 25 min, 40 to 45 min, 60 to 65 min and 120 to 125 min after the administration, six times in total, by the following method. A local anesthetic, 0.4 w/v % oxybuprocaine hydrochloride solution (Santen Pharmaceutical) (50 μl) was instilled into one eye of a rabbit, 5 min later the remaining eye drops and tears were once soaked up using a water absorbing paper, and then a previously weighed filter paper (5×35 mm) was inserted in the lower eyelid area. Five minutes later, the filter paper was recovered, weighed and the increment in weight was taken as the amount of secreted tears. After measuring the amount of secreted tears, the filter paper thus recovered was placed in a 1.5-ml test tube, 1 ml of the phosphate buffer solution (pH 7.4) was added thereto, and the test tube was vortexed for 30 s. After the removal of the filter paper, followed by the centrifugation at 3,000 rpm for 5 min, a stain reagent of Bio-Rad protein assay kit was added to the supernatant to measure the amount of protein and calculate a total amount of protein in the filter paper. From the total amount of protein and that of secreted tears, the protein concentration in tears was calculated. With the amount of secreted tears prior to the administration of a test solution taken as the basal secretion amount, ratios of increases in the secreted tears to the basal secretion amount were used as the rate of increase in the tear secretion (%). In addition, with the protein concentration in tears prior to the administration of a test solution taken as the basal protein concentration, ratios of increases in respective protein concentrations relative to the basal protein concentration were used as the rate of increase in protein concentration in tears (%).

[2] = test system: Japanese albino strain male rabbits; assay: Tear protein secretion promoting action of eye drops (Test Example 2); type: in vivo, rabbit; details: 0.1 w/v % eye drops, 50 μl instilled into one eye, vs basal concentration
Method: Using Japanese albino strain male rabbits, eye drops containing adrenergic β receptor agonists were examined for their actions to promote the tear protein secretion.
Prior to use, each adrenergic β receptor agonist was dissolved in a phosphate buffer solution to prepare 0.1 w/v % solution, and adjusted to the pH ranging 6.0 to 7.5. Compounds and compositions of eye drops used in this experiment are shown below using the phosphate buffer solution as control.
Six rabbits (12 weeks old, weighing 2.0 to 2.5 kg) were used in each group. A test solution (50 μl) was instilled into one eye of the rabbit, and protein concentrations in tears were measured for 5 minutes from 15 to 10 min prior to the instillation of the test solution, for 5 minutes from 5 to 10 min and for 5 minutes from 20 to 25 min after the instillation, three times in total, using the following method. A local anesthetic, 0.4 w/v % oxybuprocaine hydrochloride solution (Santen Pharmaceutical) (50 μl) was instilled into one eye of the rabbit, 5 min later the remaining eye drops and tears were once soaked up using a water absorbing paper, and then a previously weighed filter paper (5×35 mm) was inserted in the lower eyelid area. Five minutes later, the filter paper was recovered, weighed and the increment in weight was taken as the amount of secreted tears. Immediately after measuring the amount of secreted tears, the filter paper thus recovered was placed in a 1.5-ml test tube, 1 ml of the phosphate buffer solution (pH 7.4) was added thereto, and the test tube was stirred for 30 s. After the removal of the filter paper followed by the centrifugation of the solution at 3,000 rpm for 5 min, a stain reagent of Bio-Rad protein assay kit was added to the supernatant to measure the amount of protein and calculate the total amount of protein in the filter paper. From the total amount of protein and that of secreted tears, the protein concentration in tears was calculated.
With the protein concentration in tears prior to the instillation of a test solution taken as a basal protein concentration, ratios of increases in respective protein concentrations relative to the basal protein concentration were used as the rate of increase in protein concentration in tears (%)

[3] = test system: Japanese albino strain male rabbits; assay: Tear secretion promoting action of eye drops (Test Example 1); type: in vivo, rabbit; details: 0.1 w/v % eye drops, 50 μl instilled into one eye, vs basal secretion amount
Method: Using Japanese albino strain male rabbits, eye drops containing adrenergic β receptor agonists were examined for their tear secretion promoting actions.
Prior to use, each adrenergic β receptor agonist was dissolved in a phosphate buffer solution to prepare a 0.1 w/v % solution, which was adjusted to the pH ranging 6.0 to 7.5. Compounds used in this experiment are shown below. The phosphate buffer solution served as control.
Six rabbits (12 weeks old, weighing 2.0 to 2.5 kg) were used in each group. A test solution (50 μl) was instilled into one eye of the rabbit, and amounts of tears secreted were measured for 5 minutes from 15 to 10 min prior to the instillation of the test solution, for 5 minutes from 5 to 10 min and for 5 minutes from 20 to 25 min after the instillation, three times in total, by the following method. A local anesthetic, 0.4 w/v % oxybuprocaine hydrochloride solution (Santen Pharmaceutical) (50 μl) was instilled into one eye of the rabbit, 5 min later the remaining eye drops and tears were once soaked up using a water absorbing paper, and then a previously weighed filter paper (5×35 mm) was inserted in the lower eyelid area. Five minutes later, the filter paper was recovered, weighed and the increment in weight was taken as the amount of secreted tears. With the amount of secreted tears prior to the instillation of a test solution taken as a basal secretion amount, ratios of increases in the amount of secreted tears to the basal secretion amount were used as the rate of increase in the tear secretion (%).

[4] = test system: Japanese albino strain male rabbits; assay: Tear secretion after systemic (ear vein) administration (Test Example 3); type: in vivo, rabbit; details: for Rate of increase in tear secretion (%): 50 μg/rabbit into the ear vein
Method: as §1, §2, §3

[5] = 120-125 min after administration
[6] = intravenous administration, result in words
[7] = for 5 minutes from 5 to 10 min after instillation
[8] = for 5 minutes from 20 to 25 min after instillation

T1 sequence (Q8K4Z4 whole entry): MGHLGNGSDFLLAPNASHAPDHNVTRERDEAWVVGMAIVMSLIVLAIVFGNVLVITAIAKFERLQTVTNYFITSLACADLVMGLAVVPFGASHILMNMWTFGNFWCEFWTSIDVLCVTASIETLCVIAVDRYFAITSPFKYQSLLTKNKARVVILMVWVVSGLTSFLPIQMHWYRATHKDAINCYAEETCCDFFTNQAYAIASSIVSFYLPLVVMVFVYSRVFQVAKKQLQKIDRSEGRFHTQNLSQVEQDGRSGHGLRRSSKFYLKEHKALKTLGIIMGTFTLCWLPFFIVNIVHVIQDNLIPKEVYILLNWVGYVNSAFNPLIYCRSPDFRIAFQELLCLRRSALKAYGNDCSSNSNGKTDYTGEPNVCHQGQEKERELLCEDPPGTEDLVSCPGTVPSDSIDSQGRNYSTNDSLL

| Compound | Relative specificity to the tracheal smooth muscle, higher than that of isoproterenol (β2 adrenergic receptor) | Rate of increase in tear protein concentration [2, 7] | Rate of increase in tear protein concentration [2, 8] | Rate of increase in tear secretion [3, 7] | Rate of increase in tear secretion [3, 8] | further results |
| --- | --- | --- | --- | --- | --- | --- |
| CC(C)(C)NCC(O)c1cc(Cl)c(N)c(Cl)c1 (stereo not drawn) [Clenbuterol hydrochloride, clenbuterol hydrochloride] | about 7000 times | 16% | 53% | 36% | 29% | Rate of increase in protein concentration in tears (%) ([1]; 5-10 min after administration): 139%; Rate of increase in protein concentration in tears (%) ([1]; 20-25 min after administration): 148%; Rate of increase in protein concentration in tears (%) ([1]; 40-45 min after administration): 179%; Rate of increase in protein concentration in tears (%) ([1]; 60-65 min after administration): 188%; Rate of increase in protein concentration in tears (%) [1, 5]: 171%; Protein concentration in tears [1, 6]: significant increases; Rate of increase in tear secretion (%) ([4]; 5-10 min after administration): 155%; Rate of increase in tear secretion (%) ([4]; 20-25 min after administration): 146%; Rate of increase in tear secretion (%) ([4]; 40-45 min after administration): 133%; Rate of increase in tear secretion (%) ([4]; 60-65 min after administration): 68%; Rate of increase in tear secretion (%) [4, 5]: 58%; Amount of tear secretion [4, 6]: significant increases |
| CC(CCc1ccc(O)cc1)NCCc1ccc(O)c(O)c1 (stereo not drawn) [Dobutamine, dobutamine hydrochloride] |  | 9% | −19% | 8% | −29% |  |
| CC(Cc1ccc(O)cc1)NCC(O)c1cc(O)cc(O)c1 (stereo not drawn) [Fenoterol hydrobromide, fenoterol hydrobromide] | about 20 times | 16% | 43% | 144% | 49% |  |
| CCC(NC(C)C)C(O)c1ccc(O)c2[nH]c(=O)ccc12 (stereo not drawn) [Procaterol hydrochloride, procaterol hydrochloride] | about 2000 times | 76% | 109% | 118% | 43% |  |
| CC(C)(C)NCC(O)c1ccc(O)c(CO)n1 (stereo not drawn) [pirbuterol] | about 260 times |  |  |  |  |  |
| CC(C)(C)NCC(O)c1ccc(O)c(CO)c1 (stereo not drawn) [salbutamol] | about 30 times |  |  |  |  |  |
